From patent US5290795A, “Substituted urea compound and use” (Novo Nordisk N/A, priority 1990, dated 1994)

What was measured:
[1] = molecular target: T1, 5-HT3 receptor (Cavia porcellus, UniProt O70212); test: Inhibition of 5-HT-induced contractions in isolated guinea pig ileum; format: cell-based; settings: methysergide 10^-6 M, 20 min incubation, 5-HT contact time 30 sec, 37° C., read-out: A2 (concentration of the antagonist giving a dose ratio of 2) (converted)
T1 construct: the terminal 15 cm of ileum removed, and 1.5-2.0 cm lengths prepared and mounted in 10 ml organ baths; from tissue; host or cells: isolated guinea pig terminal ileum
T1 sequence (O70212 24-490 limits assumed): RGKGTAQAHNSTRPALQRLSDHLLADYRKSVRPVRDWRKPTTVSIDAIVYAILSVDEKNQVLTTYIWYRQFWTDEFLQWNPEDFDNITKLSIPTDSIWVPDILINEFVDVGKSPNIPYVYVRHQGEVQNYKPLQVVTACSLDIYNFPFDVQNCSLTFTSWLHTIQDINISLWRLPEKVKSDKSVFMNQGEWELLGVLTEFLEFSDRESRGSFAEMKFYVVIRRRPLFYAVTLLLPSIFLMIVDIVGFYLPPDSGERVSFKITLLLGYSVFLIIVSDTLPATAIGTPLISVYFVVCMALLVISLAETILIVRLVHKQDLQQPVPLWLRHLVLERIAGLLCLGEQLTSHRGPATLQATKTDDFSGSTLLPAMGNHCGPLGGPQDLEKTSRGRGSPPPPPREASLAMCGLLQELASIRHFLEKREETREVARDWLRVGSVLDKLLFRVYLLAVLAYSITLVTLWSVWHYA
Protocol: Inhibition of 5-HT-Induced Contractions in Isolated Guinea Pig Ileum
Compounds of formula (I) were tested for their 5HT3 -antagonist activity using the following method:
5-HT produces contractions of the guinea pig ileum via 2 different receptors. 1) direct contractions via 5-HT2 receptors on the muscle, 2) indirect contractions via 5-HT3 receptors on intrinsic gut neurones, producing acetylcholine release. By administering 5-HT to lengths of ileum in the presence of methysergide (to block 5-HT2 receptors) you can assay 5-HT3 receptor activity.
Guinea pigs were killed by means of cervical dislocation the terminal 15 cm of ileum removed, and 1.5-2.0 cm lengths prepared and mounted in 10 ml organ baths containing calcium deficient tyrodes of the following composition (mM) NaCl (136.9); KCl (2.68); CaCl2 (0.9); MgCl2 (1.05); NaCO3 (11.9); NaH2 PO4 (0.42); glucose (5.55) and containing methysergide (10^-6 M) maintained at 37° C. and gassed with 95% O2 and 5% CO2. The mechanical activity of the muscle was measured by a HSE 351 isometric transducer connected via a HSE bridge amplifier to a potentiometric pen recorder. […]
The maximum response to acetylcholine for each tissue is measured and the responses to 5-HT calculated as percentage maximum of the acetylcholine (Ach) maximum response in that tissue. The peak of the 5-HT response is measured. […]

[2] = molecular target: T2, 5-HT3 receptor (Mus musculus, UniProt P23979); test: 5-HT3 receptor binding to N1E-115 neuroblastoma cells (3H-Quipazine displacement); settings: for displacement of 3H-Quipazine binding: specificity of the assay, N1E-115 neuroblastoma cells, in words
T2 construct: Harvested cells were homogenized in Tris buffer; endogenous in cells; host or cells: N1E-115 mouse neuroblastoma cells
T2 sequence (P23979 24-489): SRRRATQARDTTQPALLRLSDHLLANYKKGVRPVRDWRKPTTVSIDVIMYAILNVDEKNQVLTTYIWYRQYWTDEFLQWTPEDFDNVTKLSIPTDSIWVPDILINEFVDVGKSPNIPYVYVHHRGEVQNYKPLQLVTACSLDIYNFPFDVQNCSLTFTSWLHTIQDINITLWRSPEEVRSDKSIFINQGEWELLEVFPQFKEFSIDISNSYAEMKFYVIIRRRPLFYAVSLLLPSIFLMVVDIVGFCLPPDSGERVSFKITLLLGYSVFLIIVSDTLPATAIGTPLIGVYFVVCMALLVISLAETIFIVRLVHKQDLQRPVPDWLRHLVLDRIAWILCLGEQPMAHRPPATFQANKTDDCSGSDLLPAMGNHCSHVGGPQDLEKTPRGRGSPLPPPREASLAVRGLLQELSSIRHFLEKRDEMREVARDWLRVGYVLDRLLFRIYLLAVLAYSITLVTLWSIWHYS
Protocol: 5-HT3 Receptor Binding to N1E-115 Neuroblastoma Cells
The binding of 3H-quipazine to N1E-115 neuroblastoma cells in-vitro was determined by a modification of the method of Hoyer and Neijt (Hoyer, D. and Neijt, H. C., 1988, Molecular Pharmacology, 33:303-309). […] The cells were grown to a density of 8-15×10^7 cells per bottle and harvested by vigorous shaking. Harvested cells were homogenized in Tris buffer (20 mm, pH=7.5) containing 154 mM NaCl using a Brinkmann Polytron. The homogenate was centrifuged at 900×g and the supernatant was used directly in the binding assay. The supernatant was diluted at a concentration of 2×10^6 cells per ml in Tris buffer. Binding assays consisted of 50 μL 3H-Quipazine (1 nM final concentration), 250 μL membrane suspension, and 200 μL drug or buffer. Nonspecific binding was determined by the addition of 10 μM MDL 72222. Tubes were incubated at […] for 60 minutes, followed by filtration through GFB filters under vacuum. The filters were then washed with ice-cold Tris buffer.

CN1[C@@H]2CCC[C@H]1C[C@@H](NC(=O)Nc1ccsc1-c1nc(C3CC3)no1)C2 [Example 4, N-(2-(3-Cyclopropyl-1,2,4-oxadiazol-5-yl)-3-thienyl)-N^1 - (endo-9-methyl-9-azabicyclo[3.3.1]non-3yl)urea]
Kb [1]: 103 µM
IC50 [2]: 6.7 nM

CCCCc1noc(-c2sccc2NC(=O)N[C@H]2C[C@H]3CCC[C@@H](C2)N3C)n1 [Example 7, N-(2-(3-Butyl-1,2,4-oxadiazol-5-yl)-3-thienyl)-N^1-(endo-9-methyl-9-azabicyclo[3.3.1]non-3-yl)urea]
Kb [1]: 24.8 µM
IC50 [2]: 2.3 nM

CCCN(CCC)C1CCc2cccc(O)c2C1 (stereo not shown) [Example 8-OH-DPAT]
displacement of 3H-Quipazine binding [2]: inability

CN1[C@@H]2CC[C@H]1C[C@@H](OC(=O)c1c[nH]c3ccccc13)C2 [ICS 205-930]
displacement of 3H-Quipazine binding [2]: potent displacers

CN1[C@@H]2CC[C@H]1C[C@@H](OC(=O)c1cc(Cl)cc(Cl)c1)C2 [MDL 72222]
displacement of 3H-Quipazine binding [2]: potent displacers

O=C(c1ccc(F)cc1)C1CCN(CCn2c(=O)[nH]c3ccccc3c2=O)CC1 [ketanserin]
displacement of 3H-Quipazine binding [2]: inability

c1ccc2nc(N3CCNCC3)ccc2c1 [quipazine]
displacement of 3H-Quipazine binding [2]: potent displacers

COc1cc(N)c(Cl)cc1C(=O)NC1CN2CCC1CC2 (stereo not shown) [zacopride]
displacement of 3H-Quipazine binding [2]: potent displacers
